These results are taken from patent US9951039B2, “Pyrimidines for treatment of bacterial infections” (The Hong Kong Polytechnic University, priority 2016, dated 2018).

In assay [1] the test system is E. coli strain ATCC25922. The assay can be described thus: MIC, broth microdilution antimicrobial susceptibility test (CLSI). Format: cell-based. The settings on record: E. coli ATCC 25922, growth inhibited by ≥90%, 18 h; for MIC: Escherichia coli, ATCC25922, read-out: MIC^c: Minimum inhibitory concentration against E. coli. An excerpt:
(§1) This example illustrates the evaluation of 2,4,6-trisubstituted pyrimidines 14 for their antimicrobial activities against the Gram positive S. aureus strain ATCC29213 and the Gram negative E. coli strain ATCC25922 by measuring their MIC, which is the lowest concentration of an antimicrobial agent that prevents visible growth of a microorganism in a broth dilution susceptibility test according to the standard method approved by the Clinical and Laboratory Standards Institute (CLSI) guidelines.^21
(§2) Procedure of Antimicrobial susceptibility test: The MIC value of compounds was measured in the antimicrobial susceptibility test using the broth microdilution procedure in accordance with the CLSI guidelines.^21 Cation-adjusted Mueller Hinton broth (CA-MHB) was used for all the S. aureus strains in the assay. Cells in exponential phase of growth were diluted to approximately 5×10^5 cfu/mL. Stock solutions of each compound were freshly dissolved in dimethyl sulfoxide (DMSO). Then, serial dilutions of each compound in CA-MHB medium were added into 96-well microplate. The final percentage of DMSO in the assay was 1%. Control experiments were performed with 1% DMSO instead of the compound solution. After being incubated at 37° C. for 18 h, OD600 value of cells was measured on a microplate reader and the percentage of bacterial cell inhibition with respect to controls was calculated. The MIC value was defined as the lowest compound concentration at which the growth of bacteria was inhibited by ≥90%. Three independent assays were performed for each compound.
For orientation: Dilution methods test growth across graded concentrations, often in twofold steps.

The test system of assay [2] is S. aureus strain ATCC29213. The description is as above. Format: cell-based. Conditions: for MIC^c/MIC^b: Selectivity index: E. coli ATCC 25922 MIC over S. aureus 29213 MIC; for MIC: Staphylococcus aureus; for antibacterial activity in words (SAR analysis): MIC screening, S. aureus.
From the text: as §1, §2

Assay [3] concerns S. aureus ATCC 29247 (ampicillin resistant strain). Briefly: MIC against clinically isolated strain 1. Format: cell-based. The settings on record: Staphylococcus aureus, ATCC29247. As to the method:
as §2
(§3) Results: Three compounds, namely 14av_amine16, 14dv_amine16 and 14dv_amine06, were selected to be tested against nine in-house clinically isolated bacterial strains including S. aureus ATCC29247, which is an ampicillin resistant strain, S. aureus ATCC BAA-41, ATCC BAA-1717, ATCC BAA-1720, ATCC 43300 which are methicillin resistant strains and four USA300 strains, (#417, #757, #1799 and #2690), which are the predominant strain type of community-associated MRSA strains in the United States.

Assay [4] has as its system S. aureus ATCC BAA-1717 (methicillin resistant). The assay can be described thus: MIC against clinically isolated strain 2. Format: cell-based. Conditions: Staphylococcus aureus, ATCCBAA1717. As to the method: as §2, §3
Assay [5] concerns S. aureus ATCC BAA-1720 (methicillin resistant). Briefly: MIC against clinically isolated strain 3. Conditions: Staphylococcus aureus, ATCCBAA1720. Format: cell-based. As to the method: as §2, §3
Assay [6] deals with S. aureus ATCC BAA-41 (methicillin resistant). The assay can be described thus: MIC against clinically isolated strain 4. Format: cell-based. The settings on record: Staphylococcus aureus, ATCCBAA41. On the procedure: as §2, §3
Assay [7] relates to S. aureus ATCC 43300 (methicillin resistant). The assay can be described thus: MIC against clinically isolated strain 5. Format: cell-based. Conditions: Staphylococcus aureus, ATCC43300. On the procedure: as §2, §3
In assay [8] the test system is USA300 #417 (community-associated MRSA). Briefly: MIC against clinically isolated strain 6. Format: cell-based, S. aureus. The settings on record: Staphylococcus aureus. As to the method: as §2, §3
Assay [9] relates to USA300 #757 (community-associated MRSA). The assay can be described thus: MIC against clinically isolated strain 7. Format: cell-based, S. aureus. The settings on record: Staphylococcus aureus. As to the method:
as §2, §3

The test system of assay [10] is USA300 #1799 (community-associated MRSA). The assay can be described thus: MIC against clinically isolated strain 8. Format: cell-based, S. aureus. The settings on record: Staphylococcus aureus. As to the method:
as §2, §3

The subject of assay [11] is USA300 #2690 (community-associated MRSA). Briefly: MIC against clinically isolated strain 9. Format: cell-based, S. aureus. The settings on record: Staphylococcus aureus. As to the method:
as §2, §3

The mark [12] stands for this setting: ATCC29213, S. aureus 29213, growth inhibited by ≥90%, 18 h, read-out: MIC^b: Minimum inhibitory concentration against S. aureus.
Setting [13] is: S. aureus ATCC29213, read-out: MIC against S. aureus.
Setting [14] is: S. aureus 29213, growth inhibited by ≥90%, 18 h.

Structures are written as SMILES. Values after ≈ are worked out from the molar mass of the structure shown. Read-outs that look alike come from different tables or passages of the source.

Regarding `CC(C)c1ccc(CN2CCCN(CCc3cc(-c4ccccc4)nc(-c4ccncc4)n3)CC2)cc1` [Compound 14dv_amine06, 1-(4-isopropylbenzyl)-4-(2-(6-phenyl-2-(pyridin-4-yl)pyrimidin-4-yl)ethyl)-1,4-diazepane], the MIC in assay [1] is above 125 µM; in [2] (setting [12]) it was 5 µM (≈ 2.46 µg/mL); in assay [2] (setting [13]), 5 to 8 µM (≈ 2.46 to 3.93 µg/mL); in [3], 5 µM (≈ 2.46 µg/mL); in [4], 5 µM (≈ 2.46 µg/mL); in assay [5], 10 µM (≈ 4.92 µg/mL). The MIC in [6], in [7], in assay [8], in [9], in assay [10] and in assay [11] was 10 µM (≈ 4.92 µg/mL) each time. In [2], the “MIC^c/MIC^b: Selectivity index” value is reported as above 25.
As to `CCC(CC)c1cc(CCN2CCCN(Cc3ccc(C(C)(C)C)cc3)CC2)nc(-c2ccncc2)n1` [Compound 14av_amine07], the “MIC^c: Minimum inhibitory concentration against E. coli” value in [1] was above 125 µM. In addition, the “MIC^c/MIC^b: Selectivity index” value in assay [2] is reported as above 7. The “MIC^b: Minimum inhibitory concentration against S. aureus” value (“MIC^b: Minimum inhibitory concentration” below) in [2] (setting [14]) was 16 µM (≈ 8 µg/mL).
In the same order, the values of `CCC(CC)c1cc(CCN2CCCN(Cc3cccc(C(F)(F)F)c3)CC2)nc(-c2ccncc2)n1` [Compound 14av_amine17] are above 125 µM, above 7 and 16 µM (≈ 8.19 µg/mL).
In the case of `Brc1ccc(CN2CCCN(CCc3cc(-c4ccccc4)nc(-c4ccncc4)n3)CC2)cc1` [Compound 14dv_amine08, 1-(4-bromobenzyl)-4-(2-(6-phenyl-2-(pyridin-4-yl)pyrimidin-4-yl)ethyl)-1,4-diazepane], the MIC in assay [1] is above 125 µM; in assay [2] (setting [12]), 5 µM (≈ 2.64 µg/mL); in assay [2] (setting [13]), 5 to 8 µM (≈ 2.64 to 4.23 µg/mL). The “MIC^c/MIC^b: Selectivity index” value in assay [2] is reported as above 25.
As for `CCC(CC)c1cc(CCN2CCN(Cc3ccc(C(F)(F)F)cc3)CC2)nc(-c2ccncc2)n1` [Compound 14av_amine24], the “MIC^c: Minimum inhibitory concentration against E. coli” value in assay [1] was above 125 µM. Also, in assay [2], the “MIC^c/MIC^b: Selectivity index” value is recorded as above 10 and the “antibacterial activity in words (SAR analysis)” value (shortened to “antibacterial activity in words”) is “poor antibacterial activity”. The “MIC^b: Minimum inhibitory concentration” value in assay [2] (setting [14]) is 12 µM (≈ 5.97 µg/mL).
For the compound `CC(C)c1cc(CCN2CCCN(Cc3ccc(C(F)(F)F)cc3)CC2)nc(-c2ccncc2)n1` [Compound 14bv_amine16], the “antibacterial activity in words” value in assay [2] is recorded as “poor antibacterial activity”.
Same read-out and setting: in the case of `CCC(CC)c1cc(CCN2CCCN(C(=O)c3ccc(C(F)(F)F)cc3)CC2)nc(-c2ccncc2)n1` [Compound 14av_amine19] it was “poor antibacterial activity”.
Take `CCC(CC)c1cc(CCN2CCCN(Cc3ccc(C(F)(F)F)cc3)CC2)nc(C)n1` [Compound 14aw_amine16]: the “antibacterial activity in words” value in assay [2] was “weak antibacterial activity”.
As to `FC(F)(F)c1ccc(CCN2CCCN(CCc3cc(-c4ccccc4)nc(-c4ccncc4)n3)CC2)cc1` [Compound 14dv_amine20, 1-(2-(6-phenyl-2-(pyridin-4-yl)pyrimidin-4-yl)ethyl)-4-(4-(trifluoromethyl)phenethyl)-1,4-diazepane], the MIC in [1] was above 125 µM; in [2] (setting [12]) it was 5 µM (≈ 2.66 µg/mL); in [2] (setting [13]), 5 to 8 µM (≈ 2.66 to 4.25 µg/mL). The “MIC^c/MIC^b: Selectivity index” value in assay [2] is above 25.
In the case of `CCCCCc1cc(CCN2CCCN(Cc3ccc(C(F)(F)F)cc3)CC2)nc(-c2ccncc2)n1` [Compound 14cv_amine16], in [1], the “MIC^c: Minimum inhibitory concentration against E. coli” value was above 125 µM. Further, in assay [2], the “MIC^c/MIC^b: Selectivity index” value was above 12 and the “antibacterial activity in words” value is given as “poor antibacterial activity”. In addition, the “MIC^b: Minimum inhibitory concentration” value in assay [2] (setting [14]) came to 10 µM (≈ 5.12 µg/mL).
On to `CCC(CC)c1cc(CCN2CCCN(Cc3ccc(C(C)C)cc3)CC2)nc(-c2ccncc2)n1` [Compound 14av_amine06], for which, in [1], the “MIC^c: Minimum inhibitory concentration against E. coli” value was above 125 µM. Besides, the “MIC^c/MIC^b: Selectivity index” value in assay [2] is given as above 7. In addition, the “MIC^b: Minimum inhibitory concentration” value in assay [2] (setting [14]) turned out to be 16 µM (≈ 7.77 µg/mL).
The like results for `CCC(CC)c1cc(CCN2CCN(Cc3cccc(C(F)(F)F)c3)CC2)nc(-c2ccncc2)n1` [Compound 14av_amine28] were, in that order, above 125 µM, above 12 and 10 µM (≈ 4.98 µg/mL).
In the same order, the values of `CCCCCc1cc(CCN2CCCN(Cc3ccc(C(C)C)cc3)CC2)nc(-c2ccncc2)n1` [Compound 14cv_amine06] are above 125 µM, above 12 and 10 µM (≈ 4.86 µg/mL).
With `CCC(CC)c1cc(CCN2CCCN(Cc3ccccc3C(F)(F)F)CC2)nc(-c2ccncc2)n1` [Compound 14av_amine18], the “MIC^c: Minimum inhibitory concentration against E. coli” value in assay [1] is above 125 µM. Also, the “MIC^c/MIC^b: Selectivity index” value in assay [2] is above 7. The “MIC^b: Minimum inhibitory concentration” value in assay [2] (setting [14]) is 16 µM (≈ 8.19 µg/mL).
In the same order, the values of `Fc1ccc(CN2CCCN(CCc3cc(-c4ccccc4)nc(-c4ccncc4)n3)CC2)cc1F` [Compound 14dv_amine12] are above 125 µM, above 12 and 10 µM (≈ 4.86 µg/mL).
In the case of `CCC(CC)c1cc(CCN2CCCN(Cc3ccc(C(F)(F)F)cc3)CC2)nc(-c2ccccn2)n1` [Compound 14az_amine16], the “antibacterial activity in words” value in [2] is recorded as “weak antibacterial activity”.
Turning to `CCC(CC)c1cc(CCN2CCCN(CCc3ccc(C(F)(F)F)cc3)CC2)nc(-c2ccncc2)n1` [Compound 14av_amine20, 1-(2-(6-(pentan-3-yl)-2-(pyridin-4-yl)pyrimidin-4-yl)ethyl)-4-(4-(trifluoromethyl)phenethyl)-1,4-diazepane], the results for the MIC in assay [1], in assay [2] (setting [12]) and in assay [2] (setting [13]) were above 125 µM, 8 µM (≈ 4.21 µg/mL) and 5 to 8 µM (≈ 2.63 to 4.21 µg/mL), respectively. In assay [2], the “MIC^c/MIC^b: Selectivity index” value was above 15. Besides, the “antibacterial activity in words” value in [2] is “low MIC value”.
For `CCC(CC)c1cc(CCN2CCCN(Cc3ccc(Br)cc3)CC2)nc(-c2ccncc2)n1` [Compound 14av_amine08], in assay [1], the “MIC^c: Minimum inhibitory concentration against E. coli” value is above 125 µM. In addition, the “MIC^c/MIC^b: Selectivity index” value in [2] was above 7. The “MIC^b: Minimum inhibitory concentration” value in assay [2] (setting [14]) was found to be 16 µM (≈ 8.36 µg/mL).
In the same order, the values of `Fc1cccc(CN2CCCN(CCc3cc(-c4ccccc4)nc(-c4ccncc4)n3)CC2)c1` [Compound 14dv_amine10] are above 125 µM, above 12 and 10 µM (≈ 4.68 µg/mL).
For the compound `CCC(CC)c1cc(CCN2CCCN(Cc3ccc(C(F)(F)F)cc3)CC2)nc(-c2ccccc2)n1` [Compound 14ax_amine16], the “antibacterial activity in words” value in assay [2] is “weak antibacterial activity”.
The same measure, in the same setting: in the case of `CCC(CC)c1cc(CCN2CCCN(Cc3ccc(C(F)(F)F)cc3)CC2)nc(-c2cccnc2)n1` [Compound 14ay_amine16] it was “weak antibacterial activity”.
As to `CCC(CC)c1cc(CCN2CCCN(Cc3ccc(Cl)cc3)CC2)nc(-c2ccncc2)n1` [Compound 14av_amine13], the “MIC^c: Minimum inhibitory concentration against E. coli” value in [1] was above 125 µM. For the same compound, in [2], the “MIC^c/MIC^b: Selectivity index” value is listed as above 9. Besides, the “MIC^b: Minimum inhibitory concentration” value in assay [2] (setting [14]) turned out to be 13 µM (≈ 6.22 µg/mL).
As for `CC(C)(C)c1ccc(CN2CCCN(CCc3cc(-c4ccccc4)nc(-c4ccncc4)n3)CC2)cc1` [Compound 14dv_amine07, 1-(4-(tert-butyl)benzyl)-4-(2-(6-phenyl-2-(pyridin-4-yl)pyrimidin-4-yl)ethyl)-1,4-diazepane], the figures for the MIC in assay [1], in assay [2] (setting [12]) and in [2] (setting [13]) were above 125 µM, 5 µM (≈ 2.53 µg/mL) and 5 to 8 µM (≈ 2.53 to 4.05 µg/mL), respectively. In assay [2], the “MIC^c/MIC^b: Selectivity index” value is on record as above 25.
